Measured values: patent US20250002535A1, “PEPTIDE HYDROGEL COMPRISING HYDROPHILIC AZIDE-CONTAINING AMINO ACID AND ITS USE” (The United States of America, as represented by the …, priority 2023, published 2025)
Numbered stars: 1 amine (or outer) side, 2 acyl side, 3 side chain; on linkers, the order of the positions; unused ones are H or OH. Square brackets hold non-standard residues; d marks the D form. Peptide text beside a SMILES is read from it. X1 = [N-]=[N+]=NCCNCC[C@H](N[*:1])C(=O)[*:2]; Lys(N3) = [N-]=[N+]=NCCCC[C@H](N)C(=O)O

Tests used:
[1] = intrinsic hydrophilicity/hydrophobicity coefficient ΔtR(Gly) by RP-HPLC (procedure of Hodges et al.); type: physicochemical; conditions: RP-HPLC retention of guest-residue peptide versus Gly standard; positive = more hydrophobic than Gly
Experimental: We then determined the intrinsic hydrophilicity/hydrophobicity coefficients (ΔtR(Gly)) for residue 1, ^N3K, and Lys according to the procedure of Hodges et al. to gain comparative insight into the hydrophilic nature of the new residue. […] Amino acids with side-chains more hydrophobic than Gly have positive ΔtR(Gly) values, and vice-versa.
RP-HPLC was performed with a solvent system of 0.1% TFA in Milli-Q H2O (Standard A) and 0.1% TFA in 9:1 CH3CN/H2O (Standard B). Analytical RPHPLC was performed on an Agilent 1200 series HPLC, using a Vydac 218TP C18 column (250×4.6 mm, 5 μm), with a linear gradient from 0 to 100% B at a rate of 1% B per min, at a flow rate of 0.25 mL/min and a column temperature of 40° C.

[2] = SPAAC ligation kinetics with BCN, second order conditions, NMR; conditions: methanol at 25° C.
Experimental: The reaction kinetics of amino acid 1 in SPAAC with two strained cyclooctynes, DBCO and BCN, were determined in comparison with ^N3K. First, peptides 12 and 13, which contain residue 1 and ^N3K respectively, were independently ligated to PEG-functionalized DBCO. Rates were determined under pseudo-first order conditions by UV-vis spectroscopy at 308 nm (FIGS. 3A-3C, 7, 8). The calculated second order rate constant for peptide 12 was 0.34 M^−1 s^−1 in HBS buffer, pH 7.4 at 25° C., which is similar to previously reported rate constants for other azides. The ligation rate of peptide 12 is slightly slower than peptide 13 ([…]), which may be due to hydrophobic interactions between the ^N3K side-chain and the aromatic DBCO, facilitating ligation. […] We then determined the reaction rate of Boc-protected amino acid 2 itself with BCN in methanol at 25° C. […]
Solutions of BCN and amino acids were prepared in MeOD. The reaction between BCN and amino acids was measured under second order conditions using NMR. […] The reaction was monitored by ^1H NMR. Concentration of product ([P]) at each time point was determined by the integration of red proton in the product using blue proton as internal standard. The value of k2t was calculated by equation 1. With Prism software, second order rate constants, k2, was calculated by linear regression between k2t and time. […]

[3] = solubility in water by UV-vis spectroscopy before and after centrifugation; type: physicochemical; conditions: 20 mg/mL was the highest concentration tested
Experimental: Residue 1's ability to enhance solubility was tested via the amphiphilic peptide 16, which contains 7 copies of 1 along with 9 hydrophobic Val residues. Here, we directly measured solubility via UV-vis spectroscopy of aqueous preparations of peptides before and after centrifugation (FIG. 2B). Peptide 16 (FIG. 5) was fully soluble in water at 20 mg/mL, the highest concentration tested, as was its Lys-containing control peptide 18. […] Further, peptides 16 and 18 had nearly identical RP-HPLC chromatograms (FIG. 6) indicating similar hydrophilic character. In contrast, the ^N3K-containing peptide 17 was completely insoluble in water at only 1 mg/mL, showing extensive light scattering before centrifugation and no scattering after, due to sedimentation of aggregates.

[4] = solubility of peptide powder in solvents; type: physicochemical
From the text: Peptide 17: Insoluble powder in water and acetonitrile. It is soluble in Trifluoroethanol.

For `NCCCC[C@H](N)C(=O)O` [Lys], the “intrinsic hydrophilicity/hydrophobicity coefficient ΔtR(Gly)” value [1] was −0.04.

In the case of `[N-]=[N+]=NCCNCC[C@H](N)C(=O)O` [compound 1], the “intrinsic hydrophilicity/hydrophobicity coefficient ΔtR(Gly)” value [1] is reported as 1.4.

With `CC(C)(C)OC(=O)N(CCN=[N+]=[N-])CC[C@H](NC(=O)OCC1c2ccccc2-c2ccccc21)C(=O)O` [compound 2, (S)-2-((((9H-fluoren-9-yl)methoxy)carbonyl)amino)-4-((2-azidoethyl)(tertbutoxycarbonyl)-amino)butanoic acid] the “second order rate constant k2 with BCN” value [2] was 0.28 M⁻¹ s⁻¹.

With `CC(C)[C@H](N)C(=O)N[C@@H](CCNCCN=[N+]=[N-])C(=O)N[C@H](C(=O)N[C@@H](CCNCCN=[N+]=[N-])C(=O)N[C@H](C(=O)N[C@@H](CCNCCN=[N+]=[N-])C(=O)N[C@H](C(=O)N[C@@H](CCNCCN=[N+]=[N-])C(=O)N[C@H](C(=O)N1CCC[C@@H]1C(=O)N1CCC[C@H]1C(=O)N[C@H](C(=O)N[C@@H](CCNCCN=[N+]=[N-])C(=O)N[C@H](C(=O)N[C@@H](CCC(=O)O)C(=O)N[C@H](C(=O)N[C@@H](CCNCCN=[N+]=[N-])C(=O)N[C@H](C(=O)N[C@@H](CCNCCN=[N+]=[N-])C(=O)N[C@H](C(N)=O)C(C)C)C(C)C)C(C)C)C(C)C)[C@@H](C)O)C(C)C)C(C)C)C(C)C)C(C)C` [peptide 16, VZVZVZVZV^DPPTZVEVZVZV-NH2] (H-V[X1]V[X1]V[X1]V[X1]V[dP]PT[X1]VEV[X1]V[X1]V-NH2) the solubility [3] was ≥ 20 mg/mL.

For `CC(C)[C@H](N)C(=O)N[C@@H](CCCCN=[N+]=[N-])C(=O)N[C@H](C(=O)N[C@@H](CCCCN=[N+]=[N-])C(=O)N[C@H](C(=O)N[C@@H](CCCCN=[N+]=[N-])C(=O)N[C@H](C(=O)N[C@@H](CCCCN=[N+]=[N-])C(=O)N[C@H](C(=O)N1CCC[C@@H]1C(=O)N1CCC[C@H]1C(=O)N[C@H](C(=O)N[C@@H](CCCCN=[N+]=[N-])C(=O)N[C@H](C(=O)N[C@@H](CCC(=O)O)C(=O)N[C@H](C(=O)N[C@@H](CCCCN=[N+]=[N-])C(=O)N[C@H](C(=O)N[C@@H](CCCCN=[N+]=[N-])C(=O)N[C@H](C(N)=O)C(C)C)C(C)C)C(C)C)C(C)C)[C@@H](C)O)C(C)C)C(C)C)C(C)C)C(C)C` [peptide 17] (H-V[Lys(N3)]V[Lys(N3)]V[Lys(N3)]V[Lys(N3)]V[dP]PT[Lys(N3)]VEV[Lys(N3)]V[Lys(N3)]V-NH2), the “solubility in Trifluoroethanol” value [4] was “soluble”, the “solubility in water and acetonitrile” value [4] was “Insoluble” and the solubility [3] was < 1 mg/mL.

In the case of `CC(C)[C@H](N)C(=O)N[C@@H](CCCCN)C(=O)N[C@H](C(=O)N[C@@H](CCCCN)C(=O)N[C@H](C(=O)N[C@@H](CCCCN)C(=O)N[C@H](C(=O)N[C@@H](CCCCN)C(=O)N[C@H](C(=O)N1CCC[C@@H]1C(=O)N1CCC[C@H]1C(=O)N[C@H](C(=O)N[C@@H](CCCCN)C(=O)N[C@H](C(=O)N[C@@H](CCC(=O)O)C(=O)N[C@H](C(=O)N[C@@H](CCCCN)C(=O)N[C@H](C(=O)N[C@@H](CCCCN)C(=O)N[C@H](C(N)=O)C(C)C)C(C)C)C(C)C)C(C)C)[C@@H](C)O)C(C)C)C(C)C)C(C)C)C(C)C` [peptide 18] (H-VKVKVKVKV[dP]PTKVEVKVKV-NH2; N-terminus assumed), the solubility [3] is reported as ≥ 20 mg/mL.
